Experimental data reported in patent US10736880B2, “Therapeutics for preterm labor management” (THE BOARD OF REGENTS OF THE UNIVERSITY OF TEXAS SYSTEM, priority 2015, dated 2020).
Several values for one entry are separate records, joined by “and”; a condition that tells them apart may be missing. Equal values may be shown once. Where a SMILES comes first, the peptide text is derived from it. Bridges are numbered along the chain shown (N, C = ends). [ ]: non-standard residue; d: D form. Orn = NCCC[C@H](N)C(=O)O; Mpa = O=C(O)CCS

Tests used:
[1] = Indomethacin levels in uterus, placenta and fetus after IND or LIP-IND (Example 1); type: in vivo, pregnant mouse; details: four hours following administration, mean ± sem; for concentration at 4 h: female, mouse
Prostaglandin E2 (PGE2) [2] = assay: PGE2 levels in uterine tissue after administration (Example 1); type: in vivo, pregnant mouse; details: four hours following administration
[3] = IND concentrations in maternal uterus and fetus by LC-MS/MS; type: in vivo, pregnant CD1 mice; details: female, CD1, mouse, intravenous, 1 mg/kg
Experimental: Biodistribution study in vivo. […] The in vivo doses were maintained across the study. After 4 h, pregnant mice were sacrificed by CO2 inhalation, followed by laparotomy to retrieve maternal liver, uteri, placentas and fetuses. The onset of action of LIP-IND-ORA is unknown when administered intravenously. […] Based on these prior studies, 4 h was chosen as the period of exposure.
Uterine and fetal tissues were homogenized in 1 mL of ice-cold methanol/water (7:3 v/v). Phenacetin (final concentration 20 ng/mL) was added to each sample before centrifugation at 15,000 rpm for 10 min. Supernatant was dried under nitrogen and reconstituted in 0.1% formic acid aqueous solution followed by protein precipitation with acetonitrile (1:2). Samples were centrifuged again, supernatant was transferred to vial and 10 μL was injected to Shimadzu triple quad 8040 MS connected to LC system. […] Method parameters were: LOD=3.9 ng/mL (accuracy 76%, S/N>3); LOQ=15.6 ng/mL (accuracy 85%; CV<10%; S/N>10) with correlation coefficient for linear regression R2=0.992.

[4] = test system: uterus isolated from pregnant mice; assay: Uterine contractility ex vivo, pregnant mouse; details: absence of oxytocin, 40 min incubation, IND 10-5 mol/L, n=6, mean±SEM
Source text: (§1) Uterine contractility ex vivo. An established ex vivo pregnant mouse or human models of uterine contractility was used to measure the ability of LIP-IND-ORA to inhibit uterine contractions. For mice, on GD19, timed-pregnant animals (N=6) underwent CO2 inhalation euthanasia, the maternal uteri were excised and placed into Krebs physiological solution. In the case of human tissue, strips from uterine biopsies obtained at cesarean section from non-laboring, term, healthy women were used. Uterine ring segments, 4 mm in width, were cut, and the fetuses and placentas were gently removed. […]
(§2) Changes in isometric tension were recorded with isometric force transducers (Harvard Apparatus, South Natik, Mass.) connected and stored to an online computer with data acquisition software (WINDAQ-200; DATAQ). The data was acquired and analyzed using Windaq data acquisition system (Dataq Instruments Inc, Akron, Ohio). Spontaneous contractile activity for each uterine ring was analyzed as an integral activity over 40 min before (basal activity) and after application of each study drug. […] OXY induced contractile response was expressed as an integral activity over 20 min of each OXY dose and the baseline uterine contractility54,55,56. […] Data was expressed as mean±SEM.

[5] = test system: strips from uterine biopsies obtained at cesarean section; assay: Human myometrial contractility study (organ bath); details: highest concentration of 10^−6
Source text: as §1, §2

prostaglandin E2 (PGE2) [6] = assay: PGE2 in uterine tissue incubated ex vivo, ELISA; set-up: species or system mouse; details: 40 min incubation, mean±SEM
Experimental: Another set of pregnant CD1 mice at GD 19 (n=5) was used to evaluate uterus PGE2 levels. […] PGE2 levels in each sample were then determined based on the instructions in the ELISA kit (ADI-901-001, Enzo Life Science, New York, USA). The concentration of PGE2 were expressed as pg/mL and reported as the mean±SEM.

[7] = test system: LPS-induced preterm birth; assay: LPS-induced preterm birth in vivo; set-up: species or system pregnant CD1 mice; details: IND 1 mg/kg daily tail vein
Experimental: Preterm birth in vivo. The established in vivo preterm pregnant mouse model was used to test the ability of LIP-IND-ORA to prevent preterm birth. LPS is a commonly used model to induce labor in murine models. On GD 16, timed-pregnant CD1 mice were administered lipopolysaccharide (LPS, Sigma, USA) (25 μg/kg) via intraperitoneal injection. […] Since the LIP-IND-ORA solution color was visibly pink and due to limited resources to create a placebo, the randomization was not blinded. Each day after the LPS administration, the preterm birth rate was determined as the number of pregnant mice spontaneously delivering prior to GD18. Animals were housed in single cages and were monitored by either direct observation or by video camera for the duration of the treatment period to confirm timing of delivery. The rate of preterm birth was expressed as percent and length of pregnancy after LPS administration was expressed in hours. Results were reported as median±sem.

preterm birth = details: prior experiments, 90% in control; cited from earlier work
[8] = ORA levels in maternal organs by LC-MS/MS; type: in vivo, pregnant mice; details: after LIP-IND-ORA
Source text: To enable faster clinical translation of the proposed approach, a clinically used^33 oxytocin receptor antagonist (ORA, or atosiban) was used as the targeting element. […] Thus, the goal of using ORA as a safe targeting moiety for pregnant women was successfully in delivering indomethacin to the uterus directly. The principles of nanomedicine have been applied to optimize tocolytics for the treatment of preterm labor, and the novel drug delivery system can provide a path for a new paradigm-shifting direction to advance the field of obstetrics.

concentration at 4 h ([1]; fetus) [ng/g] | concentration at 4 h ([1]; placenta) [ng/g] | concentration at 4 h ([1]; uterus) [ng/g] | Indomethacin level normalized per weight, fetus [1] [ng/g] | concentration at 4 h ([3]; fetus) [ng/g] | concentration at 4 h ([3]; uterus) [ng/g] | Structure (SMILES) | PGE2 levels in the uterus (Prostaglandin E2 (PGE2) [2]) [pg/mL] | percent inhibition of uterine contractions [4] | percent uterine contractions [5] [%] | PGE2 levels in the uterus exposed ex vivo (prostaglandin E2 (PGE2) [6]) | length of pregnancy after LPS administration [7] [h] | rate of LPS-induced preterm birth ([7]; delivery prior to GD18) [%] | rate of preterm birth (preterm birth) [%] | ORA levels in the maternal organs [8]
81.3 ± 24.7 | 650 ± 78.4 | 237 ± 21.6 | 81.3 ± 24.7 | 245 ± 61.7 | 965 ± 312 | COc1ccc2c(c1)c(CC(=O)O)c(C)n2C(=O)c1ccc(Cl)cc1 [IND, indomethacin] | 493.3 ± 89.0 | 34.3±6.6% and 34.3±5.9% | 67.2±8.4 | 2,587.4±676.5 pg/mL | 30.0 ± 4.9 | 54.5 | 30 | 
 |  |  |  |  |  | CCOc1ccc(C[C@H]2NC(=O)CCSSC[C@@H](C(=O)N3CCC[C@H]3C(=O)N[C@@H](CCCN)C(=O)NCC(N)=O)NC(=O)[C@H](CC(N)=O)NC(=O)[C@H]([C@@H](C)O)NC(=O)[C@H]([C@@H](C)CC)NC2=O)cc1 [ORA, atosiban] ([Mpa][dY](Et)ITNCP[Orn]G-NH2; disulfide 1-6) |  |  |  |  |  |  |  | not detectable
